Molecular target: human APJ receptor (Homo sapiens (Human), UniProt P35414)
Experiment: Intracellular cAMP accumulation assay (APJ hcAMP, HTRF)
Format: cell-based
Conditions: HEK293 cells stably expressing human APJ receptor; inhibition of forskolin-mediated cAMP production; read-out: Human APJ cAMP EC50 Potency range
How it was run: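 HEK293 cells stably expressing human APJ, 5,000 per well, exposed to compound with […] IBMX and 2 μM forskolin for 30 minutes at room temperature. cAMP measured by HTRF after lysis and 60 min detection incubation. EC50 from sigmoidal variable-slope fits of inhibition of forskolin-induced cAMP, quantified against a cAMP standard curve.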

Sequence of human APJ receptor (P35414 whole entry): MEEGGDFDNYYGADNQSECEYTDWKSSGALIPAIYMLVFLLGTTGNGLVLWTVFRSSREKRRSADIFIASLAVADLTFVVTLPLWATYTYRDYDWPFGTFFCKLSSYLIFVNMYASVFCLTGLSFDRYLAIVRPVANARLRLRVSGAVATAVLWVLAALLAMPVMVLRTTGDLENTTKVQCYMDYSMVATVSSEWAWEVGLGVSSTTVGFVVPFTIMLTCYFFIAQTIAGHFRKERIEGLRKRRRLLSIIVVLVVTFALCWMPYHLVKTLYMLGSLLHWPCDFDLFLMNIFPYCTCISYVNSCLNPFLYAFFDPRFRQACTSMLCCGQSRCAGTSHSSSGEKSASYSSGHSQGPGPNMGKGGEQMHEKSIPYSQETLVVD

First: CCCCc1nc(O)c(-c2nnc(Cc3noc4ccccc34)o2)c(O)c1-c1c(C)cccc1C [Example 224, 3-[5-(1,2-benzoxazol-3-ylmethyl)-1,3,4-oxadiazol-2-yl]-6-butyl-5-(2,6-dimethylphenyl)pyridine-2,4-diol]
Second: CCOCc1nc(O)c(-c2nnc(Cc3ccc(Cl)cc3)o2)c(O)c1-c1c(O)cccc1OC (single isomer, unassigned) [Example 223, 3-{5-[(4-chlorophenyl)methyl]-1,3,4-oxadiazol-2-yl}-6-(ethoxymethyl)-5-(2-hydroxy-6-methoxyphenyl)pyridine-2,4-diol]
The EC50 of the first is lower: 0.01 to 10 nM for the first, 10 to 100 nM for the second. The first is the more potent here.

CCOCc1nc(O)c(-c2nnc(Cc3ccc(Cl)cc3)o2)c(O)c1-c1c(OC)cncc1OC [Example 217, 3-{5-[(4-chlorophenyl)methyl]-1,3,4-oxadiazol-2-yl}-5-(3,5-dimethoxypyridin-4-yl)-6-(ethoxymethyl)pyridine-2,4-diol] was tested, and the EC50 was 10 to 100 nM.

Same assay, conditions: HEK293 cells stably expressing human APJ receptor; inhibition of forskolin-mediated cAMP production; read-out: hAPJ cAMP EC50 (nM) Potency range

CCOCc1nc(O)c(-c2nnc(CNC(=O)c3ccccn3)s2)c(O)c1-c1c(OC)cccc1OC [Example 235, N-({5-[5-(2,6-dimethoxyphenyl)-6-(ethoxymethyl)-2,4-dihydroxypyridin-3-yl]-1,3,4-thiadiazol-2-yl}methyl) pyridine-2-carboxamide] and COCCOCc1nc(O)c(-c2nnc(Cc3ccc(Cl)cc3)o2)c(O)c1-c1c(OC)cccc1OC [Example 244, 3-{5-[(4-chlorophenyl)methyl]-1,3,4-oxadiazol-2-yl}-5-(2,6-dimethoxyphenyl)-6-[(2-methoxyethoxy)methyl]pyridine-2,4-diol] fall in the same range of EC50: 10 to 100 nM for the first, 10 to 100 nM for the second.

First: CCOCc1nc(O)c(-c2nnc(Cc3ccc(Cl)cn3)o2)c(O)c1-c1c(O)cccc1O [Example 276, 3-{5-[(5-chloropyridin-2-yl)methyl]-1,3,4-oxadiazol-2-yl}-5-(2,6-dihydroxyphenyl)-6-(ethoxymethyl) pyridine-2,4-diol]
Second: CCCCc1nc(O)c(-c2nnc(CC(=O)NCc3ccc(OC)cc3)o2)c(O)c1-c1c(OC)cccc1OC [Example 269, 2-{5-[6-butyl-5-(2,6-dimethoxyphenyl)-2,4-dihydroxy-pyridin-3-yl]-1,3,4-oxadiazol-2-yl}-N-[(4-methoxyphenyl)methyl]acetamide]
The EC50 of the first is higher: 10 to 100 nM for the first, 0.01 to 10 nM for the second. The second is the more potent here.

Same assay, conditions: HEK293 cells stably expressing human APJ receptor; inhibition of forskolin-mediated cAMP production; read-out: hAPJ cAMP EC50 Potency range

CCOCc1nc(O)c(-c2nnc(Cc3ccc(Cl)c(F)c3)o2)c(O)c1-c1c(OC)cccc1OC [Example 122, 3-{5-[(4-chloro-3-fluorophenyl)methyl]-1,3,4-oxadiazol-2-yl}-5-(2,6-dimethoxyphenyl)-6-(ethoxymethyl) pyridine-2,4-diol] and CCCCc1nc(O)c(-c2nnc(Cc3ccc(Cl)c(Cl)c3)o2)c(O)c1-c1c(OC)cccc1OC [Example 33, 6-butyl-3-{5-[(3,4-dichlorophenyl)methyl]-1,3,4-oxadiazol-2-yl}-5-(2,6-dimethoxyphenyl) pyridine-2,4-diol] fall in the same range of EC50: 0.01 to 10 nM for the first, 0.01 to 10 nM for the second.

First: CCCCc1nc(O)c(-c2nnc(CN3C(=O)CNC3=O)o2)c(O)c1-c1c(OC)cccc1OC [Example 113, 3-({5-[6-butyl-5-(2,6-dimethoxyphenyl)-2,4-dihydroxypyridin-3-yl]-1,3,4-oxadiazol-2-yl}methyl) imidazolidine-2,4-dione]
Second: CCCCc1nc(O)c(-c2nnc(CN3CCOCC3=O)o2)c(O)c1-c1c(OC)cccc1OC [Example 117, 4-({5-[6-butyl-5-(2,6-dimethoxyphenyl)-2,4-dihydroxypyridin-3-yl]-1,3,4-oxadiazol-2-yl}methyl) morpholin-3-one]
The EC50 of the first is higher: 10 to 100 nM for the first, 0.01 to 10 nM for the second.

CCCCc1nc(O)c(-c2nnc(Cc3ccc(F)c(F)c3)o2)c(O)c1-c1cccc(COC)c1 [Example 146, 6-butyl-3-{5-[(3,4-difluorophenyl)methyl]-1,3,4-oxadiazol-2-yl}-5-[3-(methoxymethyl)phenyl]pyridine-2,4-diol] and CCCCc1nc(O)c(-c2nnc(Cc3ccc(Cl)cc3)o2)c(O)c1-c1c(Cl)cccc1Cl [Example 87, 6-butyl-3-{5-[(4-chlorophenyl)methyl]-1,3,4-oxadiazol-2-yl}-5-(2,6-dichlorophenyl) pyridine-2,4-diol] fall in the same range of EC50: 10 to 100 nM for the first, 10 to 100 nM for the second.

CCCCc1nc(O)c(-c2nnc(Cc3noc4ccccc34)o2)c(O)c1-c1c(OC)cccc1OC [Example 20, 3-[5-(1,2-benzoxazol-3-ylmethyl)-1,3,4-oxadiazol-2-yl]-6-butyl-5-(2,6-dimethoxyphenyl) pyridine-2,4-diol] and CCCCc1nc(O)c(-c2nnc(Cc3nonc3C)o2)c(O)c1-c1c(OC)cccc1OC [Example 41, 6-butyl-5-(2,6-dimethoxyphenyl)-3-{5-[(4-methyl-1,2,5-oxadiazol-3-yl)methyl]-1,3,4-oxadiazol-2-yl}pyridine-2,4-diol] fall in the same range of EC50: 0.01 to 10 nM for the first, 0.01 to 10 nM for the second.

First: CCCCc1nc(O)c(-c2nnc(Cc3cnccn3)o2)c(O)c1-c1c(OC)cccc1OC [Example 21, 6-butyl-5-(2,6-dimethoxyphenyl)-3-[5-(pyrazin-2-ylmethyl)-1,3,4-oxadiazol-2-yl]pyridine-2,4-diol]
Second: CCCCc1nc(O)c(-c2nnc(Cc3cncs3)o2)c(O)c1-c1c(OC)cccc1OC [Example 49]
The EC50 of the first is lower: 0.01 to 10 nM for the first, 100 to 300 nM for the second. The first is the more potent here.

CCCCc1nc(O)c(-c2nnc(C(C)(C)c3ccc(Cl)c(Cl)c3)o2)c(O)c1-c1c(OC)cccc1OC [Example 62, 6-butyl-3-{5-[2-(3,4-dichlorophenyl)propan-2-yl]-1,3,4-oxadiazol-2-yl}-5-(2,6-dimethoxyphenyl) pyridine-2,4-diol] and CCCCc1nc(O)c(-c2nnc(C(C)(C)c3ccc(Cl)cc3)o2)c(O)c1-c1c(OC)cccc1OC [Example 31, 6-butyl-3-{5-[2-(4-chlorophenyl)propan-2-yl]-1,3,4-oxadiazol-2-yl}-5-(2,6-dimethoxyphenyl) pyridine-2,4-diol] fall in the same range of EC50: 0.01 to 10 nM for the first, 0.01 to 10 nM for the second.

CCCCc1nc(O)c(-c2nnc(Cc3cnn(-c4ccccc4)c3)o2)c(O)c1-c1c(OC)cccc1OC [Example 78, 6-butyl-5-(2,6-dimethoxyphenyl)-3-{5-[(1-phenyl-1H-pyrazol-4-yl)methyl]-1,3,4-oxadiazol-2-yl}pyridine-2,4-diol] and CCCCc1nc(O)c(-c2nnc(Cc3cccc(C(F)(F)F)c3)o2)c(O)c1-c1c(OC)cccc1OC [Example 73, 6-butyl-5-(2,6-dimethoxyphenyl)-3-(5-{[3-(trifluoromethyl)phenyl]methyl}-1,3,4-oxadiazol-2-yl)pyridine-2,4-diol] fall in the same range of EC50: 10 to 100 nM for the first, 10 to 100 nM for the second.

CCCCc1nc(O)c(-c2nnc(CC(=O)NCCC)o2)c(O)c1-c1c(OC)cccc1OC [Example 189, 2-{5-[6-butyl-5-(2,6-dimethoxyphenyl)-2,4-dihydroxypyridin-3-yl]-1,3,4-oxadiazol-2-yl}-N-propylacetamide] and CCCCc1nc(O)c(-c2nnc(CC(=O)NC3CC3)o2)c(O)c1-c1c(OC)cccc1OC [Example 188, 2-{5-[6-butyl-5-(2,6-dimethoxyphenyl)-2,4-dihydroxypyridin-3-yl]-1,3,4-oxadiazol-2-yl}-N-cyclo-propylacetamide] fall in the same range of EC50: 0.01 to 10 nM for the first, 0.01 to 10 nM for the second.

CCCCc1nc(O)c(-c2nnc(CCc3ncccn3)o2)c(O)c1-c1c(OC)cccc1OC [Example 81, 6-butyl-5-(2,6-dimethoxyphenyl)-3-{5-[2-(pyrimidin-2-yl)ethyl]-1,3,4-oxadiazol-2-yl}pyridine-2,4-diol] and CCCCc1nc(O)c(-c2nnc(CCc3nc4ccccc4n3C)o2)c(O)c1-c1c(OC)cccc1OC [Example 58, 6-butyl-5-(2,6-dimethoxyphenyl)-3-{5-[2-(1-methyl-1H-1,3-benzodiazol-2-yl)ethyl]-1,3,4-oxadiazol-2-yl}pyridine-2,4-diol] fall in the same range of EC50: 0.01 to 10 nM for the first, 0.01 to 10 nM for the second.

First: CCCCc1nc(O)c(-c2nnc(-c3cc(C)[nH]n3)o2)c(O)c1-c1c(OC)cccc1OC [Example 19, 6-butyl-5-(2,6-dimethoxyphenyl)-3-[5-(5-methyl-1H-pyrazol-3-yl)-1,3,4-oxadiazol-2-yl]pyridine-2,4-diol]
Second: CCCCc1nc(O)c(-c2nnc(COc3ccc(F)cc3)o2)c(O)c1-c1c(OC)cccc1OC [Example 42, 6-butyl-5-(2,6-dimethoxyphenyl)-3-[5-(4-fluoro-phenoxymethyl)-1,3,4-oxadiazol-2-yl]pyridine-2,4-diol]
The EC50 of the first is higher: 100 to 300 nM for the first, 10 to 100 nM for the second. The second is the more potent here.

First: CCCCc1nc(O)c(-c2nnc(Cc3nnc(-c4cccc(Cl)c4)o3)o2)c(O)c1-c1c(OC)cccc1OC [Example 210, 6-butyl-3-(5-{[5-(3-chlorophenyl)-1,3,4-oxadiazol-2-yl]methyl}-1,3,4-oxadiazol-2-yl)-5-(2,6-dimethoxyphenyl) pyridine-2,4-diol]
Second: CCCCc1nc(O)c(-c2nnc(CNC(=O)c3ccccn3)o2)c(O)c1-c1c(OC)cccc1OC [Example 168, N-({5-[6-butyl-5-(2,6-dimethoxyphenyl)-2,4-dihydroxypyridin-3-yl]-1,3,4-oxadiazol-2-yl}methyl)pyridine-2-carboxamide]
The EC50 of the first is higher: 10 to 100 nM for the first, 0.01 to 10 nM for the second.

CCCCc1nc(O)c(-c2nnc(CNC(=O)C(C)(C)C)o2)c(O)c1-c1c(OC)cccc1OC [Example 167, N-({5-[6-butyl-5-(2,6-dimethoxyphenyl)-2,4-dihydroxypyridin-3-yl]-1,3,4-oxadiazol-2-yl}methyl)-2,2-dimethyl-propanamide] and CCOCc1nc(O)c(-c2nnc(CN3CCCC3=O)o2)c(O)c1-c1c(OC)cccc1OC [Example 112, 1-({5-[5-(2,6-dimethoxyphenyl)-6-(ethoxymethyl)-2,4-dihydroxypyridin-3-yl]-1,3,4-oxadiazol-2-yl}methyl) pyrrolidin-2-one] fall in the same range of EC50: 0.01 to 10 nM for the first, 0.01 to 10 nM for the second.

Same assay, conditions: hAPJ cAMP EC50 Potency range (nM), HEK293 cells stably expressing human APJ receptor; inhibition of forskolin-mediated cAMP production

Work on CCCCc1nc(O)c(-c2nnc(CN(C)C(=O)OC(C)(C)C)o2)c(O)c1-c1c(OC)cccc1OC [Example 121, tert-butyl N-({5-[6-butyl-5-(2,6-dimethoxyphenyl)-2,4-dihydroxypyridin-3-yl]-1,3,4-oxadiazol-2-yl}methyl)-N-methylcarbamate] yielded an EC50 of 10 to 100 nM.

Reference: US10336739B2, “4-hydroxy-3-(heteroaryl)pyridine-2-one APJ agonists” (BRISTOL-MYERS SQUIBB COMPANY, priority 2015, dated 2019)
